Patent publication US4254124A, “Antidepressant agent” (priority 1979, dated 1981)

What was measured:
mouse [1] = assay: Mouse, tail clip (analgetic); format: in vivo; details: oral
Description: Mouse, tail clip (analgetic)^1
^1 Bianchi, et al., Brit. J. of Pharmacology 9, 280 (1954).

[2] = animal tests, antidepressant activity (general statement); format: in vivo
[3] = animal tests, propensity for adverse reactions (general statement); format: in vivo; details: central nervous system depression, hypotensive action, and others; vs trazodone
Description: More particularly, in the measurement of spontaneous motor activity in the mouse using the device and method described by Kissel in U.S. Pat. No. 3,100,473 patented Aug. […] In contrast, trazodone at a dose of 15.3 mg./kg. caused a 30% reduction in spontaneous motor activity. […] Other animal test results in which MJ 12762 has been compared to trazodone are arranged in the following table.

dog = assay: carotid arterial blood pressure in pentobarbital anesthetized dog; format: in vivo; details: 1 and 10 mg./kg. intravenously
[4] = ALD50/ATD50 Mouse (lethal toxicity and first signs of pharmacologic activity); details: mouse, in vivo, po
Description: (§1) ^4 Groups of 10 mice treated variously with geometrically increasing
(§2) doses of test compound with observations of lethal toxicity (ALD50)
(§3) and for first signs of pharmacologic activity (ATD50).

mouse [5] = assay: as above
Description: as §1, §2, §3

mouse [6] = assay: Inhibition of pernicious preening in mice (anti-psychotic or analgetic); format: in vivo; details: oral
Description: mice (anti-psychotic or analgetic)^3

alpha-adrenergic = assay: blood pressure response to 1-epinephrine (alpha-adrenergic blocking action), anesthetized dog; format: in vivo
mouse [7] = assay: reserpine-induced ptosis prevention (oral pretreatment); format: in vivo; details: for ED50: Mus musculus, po, p.o. before reserpine 2.0 mg./kg. i.v., prevention in 50% of the animals
in vivo = details: mouse, po
Description: as §1, §2, §3

mouse [8] = assay: spontaneous motor activity; format: in vivo
Description: More particularly, in the measurement of spontaneous motor activity in the mouse using the device and method described by Kissel in U.S. Pat. No. 3,100,473 patented Aug.

mouse [9] = assay: Reduction of phenylquinone writhing in mice (analgetic); format: in vivo; details: oral
Description: Reduction of phenylquinone writhing
^2 Hendershot, et al., J. Pharmacol. & Exptl. Ther. 125, 237 (1959).

patients = details: cited from earlier work
[10] = U.S. Pat. No. 3,381,009; cited from earlier work
[11] = vs imipramine, Fabre et al. 1979

SMILES: O=c1n(CCCN2CCN(c3cccc(C(F)(F)F)c3)CC2)nc2ccccn12 [MJ 12762, 2-[3-[4-[3-(Trifluoromethyl)phenyl]-1-piperazinyl]propyl]-1,2,4-triazolo[4,3-a]pyridin-3(2H)-one]
- ED50 (mouse [1]): 94 mg/kg
- antidepressant activity relative to trazodone [2]: comparable in antidepressant activity to trazodone
- propensity for adverse reactions [3]: significantly reduced propensity for adverse reactions
- effect on blood pressure (dog): without effect on blood pressure
- TD50 [4]: 8 to 15.7 mg/kg
- acute toxicity relative to trazodone (mouse [5]; mouse): somewhat greater than that of trazodone
- propensity for signs of overt pharmacologic activity unrelated to utility (mouse [5]; vs trazodone): reduced as compared to trazodone
- inhibition of pernicious preening, activity in words (mouse [6]): Inactive
- inhibition of pernicious preening, animals responding (mouse [6]; at 31 mg./kg.): 2 of 10
- effect on the blood pressure response to 1-epinephrine (alpha-adrenergic blocking action) (alpha-adrenergic; intravenous doses of 1 and 10 mg./kg.): lack of alpha-adrenergic blocking action
- ED50 (mouse [7]): 14 mg/kg
- potency relative to trazodone, reserpine ptosis (mouse [7]; p.o., vs trazodone): two to three times more potent than trazodone
- LD50 (in vivo): 250 to 500 mg/kg
- effect on spontaneous motor activity (mouse [8]; 20, 40 and 80 mg. per kg. orally): neither stimulation nor depression
- ED50 (mouse [9]): 6.1 mg/kg

SMILES: O=c1n(CCCN2CCN(c3cccc(Cl)c3)CC2)nc2ccccn12 [trazodone, 2-[3-[4-(3-chlorophenyl)-1-piperazinyl]propyl]-1,2,4-triazolo[4,3-a]pyridin-3(2H)-one, reference compound]
- adverse reactions sometimes observed in patients (patients; endogenous or neurotic depression): hypotension,fatigue, drowsiness, and nasal or sinus congestion
- antidepressant effectiveness in clinical use (patients; [11]): equivalent in effectiveness to imipramine
- side effects in clinical use (patients; [11]): fewer side effects
- effect on blood pressure (dog): depressor response
- TD50 [4]: 2 to 4 mg/kg
- pharmacological action in various animal tests [10]: tranquilizing action, hypotensive action, and analgesic action
- ED50 (mouse [6]; Mus musculus): 43 mg/kg
- effect on the blood pressure response to 1-epinephrine bitartrate (alpha-adrenergic blocking action) (alpha-adrenergic; 10 mg./kg. intravenously): blocked the effect of 1-epinephrine bitartrate
- ED50 (mouse [7]): 36 mg/kg
- reduction in spontaneous motor activity (mouse [8]; 15.3 mg./kg.): 30%
